Assay results taken from patent US20250313563A1, “GLYCOGEN SYNTHASE KINASE 3 INHIBITORS AND USES THEREOF” (The Broad Institute, Inc., priority 2022, published 2025).
Read-outs that look alike come from different tables or passages of the source.

Columns and labels:
[1] = molecular target: GSK3b (GST-full length GSK3b) (Homo sapiens (Human), UniProt P49841); test: GSK3b TR-FRET kinase assay; type: biochemical
In short: (§1)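 Compound preincubated 30 min, then 1 nM GST-full-length GSK3α or GSK3b run 100 min at ambient temperature with 200 nM biotinylated, S645-prephosphorylated glycogen synthase 631-650 peptide in Tris pH 7.5, MgCl2, DTT, BSA, 1% DMSO. ATP 4 μM (α) or 2 μM (β), or 1 mM. EDTA-quenched; Tb-anti-pSer641/streptavidin-d2 TR-FRET 665/615 ratio gave IC50.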

[2] = molecular target: GSK3α (GST-full length GSK3α) (Homo sapiens (Human), UniProt P49840); test: GSK3α TR-FRET kinase assay; type: biochemical
In short: as §1

[3] = 1 nM GSK3b, 2 μM ATP, 30 minute preincubation, Table 16, read-out: GSK3-B TR-FRET BIOCHEMICAL (TR-FRET)
[4] = 1 nM GSK3α, 4 μM ATP, 30 minute preincubation, Table 16, read-out: GSK3-A TR-FRET BIOCHEMICAL (TR-FRET)
[5] = 1 nM GSK3b, 2 μM ATP, 30 minute preincubation, Table 16, read-out: GSK3-B TR-FRET BIOCHEMICAL (TR-FRET), IC50
[6] = 1 nM GSK3α, 4 μM ATP, 30 minute preincubation, Table 16, read-out: GSK3-A TR-FRET BIOCHEMICAL (TR-FRET), IC50
[7] = 1 nM GSK3b, 2 μM ATP, 30 minute preincubation, geometric mean, read-out: GSK3-B TR-FRET BIOCHEMICAL (TR-FRET), GMean, IC50
[8] = 1 nM GSK3α, 4 μM ATP, 30 minute preincubation, geometric mean, read-out: GSK3-A TR-FRET BIOCHEMICAL (TR-FRET), GMean, IC50
[9] = GSK3-B (TR-FRET 1 mM ATP), GMean, IC50, 1 mM ATP, geometric mean
[10] = GSK3-A (TR-FRET 1 mM ATP), GMean, IC50, 1 mM ATP, geometric mean
[11] = 1 nM GSK3b, 2 μM ATP, 30 minute preincubation, read-out: GSK3-B TR-FRET BIOCHEMICAL (TR-FRET), IC50
[12] = 1 nM GSK3α, 4 μM ATP, 30 minute preincubation, read-out: GSK3-A TR-FRET BIOCHEMICAL (TR-FRET), IC50
[13] = read-out: GSK3-B (TR-FRET 1 mM ATP), GMean, IC50, 1 mM ATP, geometric mean
[14] = read-out: GSK3-A (TR-FRET 1 mM ATP), GMean, IC50, 1 mM ATP, geometric mean

Sequence of GSK3α (GST-full length GSK3α) (P49840 whole entry): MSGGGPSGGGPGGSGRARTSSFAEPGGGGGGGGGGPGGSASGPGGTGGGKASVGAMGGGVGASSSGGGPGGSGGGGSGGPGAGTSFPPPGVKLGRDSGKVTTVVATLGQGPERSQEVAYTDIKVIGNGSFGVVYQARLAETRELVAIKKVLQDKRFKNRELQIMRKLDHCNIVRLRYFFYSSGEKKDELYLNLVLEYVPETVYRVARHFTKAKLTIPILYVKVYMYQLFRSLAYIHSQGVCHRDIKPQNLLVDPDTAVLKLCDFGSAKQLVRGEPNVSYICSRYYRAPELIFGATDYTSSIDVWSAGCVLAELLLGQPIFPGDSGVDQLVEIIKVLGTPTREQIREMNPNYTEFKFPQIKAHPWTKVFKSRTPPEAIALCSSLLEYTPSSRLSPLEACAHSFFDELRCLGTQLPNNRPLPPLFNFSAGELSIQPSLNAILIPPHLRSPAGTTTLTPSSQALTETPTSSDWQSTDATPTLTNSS
Sequence of GSK3b (GST-full length GSK3b) (P49841 whole entry): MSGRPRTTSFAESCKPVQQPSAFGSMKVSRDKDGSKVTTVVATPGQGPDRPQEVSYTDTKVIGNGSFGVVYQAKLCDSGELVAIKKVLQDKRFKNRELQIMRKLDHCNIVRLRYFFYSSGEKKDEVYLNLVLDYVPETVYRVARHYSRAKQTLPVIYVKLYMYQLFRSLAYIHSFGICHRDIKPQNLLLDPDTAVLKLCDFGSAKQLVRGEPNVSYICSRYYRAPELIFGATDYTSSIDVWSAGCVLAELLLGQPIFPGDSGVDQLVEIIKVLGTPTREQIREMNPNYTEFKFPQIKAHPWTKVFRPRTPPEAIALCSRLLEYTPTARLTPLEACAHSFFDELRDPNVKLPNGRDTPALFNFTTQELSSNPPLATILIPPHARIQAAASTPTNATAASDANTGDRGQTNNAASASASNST

Row | Structure (SMILES) | IC50 [1, 3] | IC50 [2, 4] | IC50 [1, 5] | IC50 [2, 6] | other results
1 | CC1(C)CC(=O)C2=C(C1)Nc1n[nH]cc1[C@]21C[C@H](c2ccncc2)C1 [Compound 889664] | 100 to 1000 nM | ≤ 100 nM |  |  | 
2 | C[C@@H]1C[C@]2(CCN1S(=O)(=O)c1ccn(C)n1)C1=C(CC(C)(C)CC1=O)Nc1n[nH]cc12 [Compound 917160] | 100 to 1000 nM | 100 to 1000 nM |  |  | 
3 | CCC1(CCc2ccccc2)C2=C(CC(C)(C)CC2=O)Nc2n[nH]cc21 (stereo not drawn) [Compound 819563] |  |  | > 5000 nM | 1000 to 5000 nM | 
4 | CC[C@]1(c2cccc(-c3ccncc3F)c2)C2=C(CC(C)(C)NC2=O)Nc2n[nH]c(Cl)c21 [Compound 949756] |  |  | > 5000 nM | > 5000 nM | 
5 | CC[C@@]1(c2cccc(-c3ccnc(C)c3Cl)c2)C2=C(CC(C)(C)NC2=O)Nc2n[nH]cc21 [Compound 948369] |  |  |  |  | IC50 [1, 7]: > 5000 nM; IC50 [2, 8]: > 5000 nM
6 | CC1(C)CC(=O)C2=C(C1)Nc1n[nH]cc1C21CCN(S(=O)(=O)C2CCCC2)CC1 [Compound 909206] |  |  | ≤ 100 nM | ≤ 100 nM | IC50 [1, 9]: 100 to 1000 nM; IC50 [2, 10]: ≤ 100 nM
7 | Cc1ccccc1CC(=O)N1CC2(C1)CC1(CO2)C2=C(CC(C)(C)CC2=O)Nc2n[nH]cc21 (stereo not drawn) [Compound 947295] |  |  |  |  | IC50 [1, 11]: ≤ 100 nM; IC50 [2, 12]: ≤ 100 nM
8 | CC[C@]1(c2cccc([C@@H]3CCOC(C)(C)C3)c2)C2=C(CC(C)(C)CC2=O)Nc2n[nH]cc21 [Compound 912091] |  |  | > 5000 nM | > 5000 nM | 
9 | CN1CCC2(CC1)C1=C(CC(C)(C)CC1=O)Nc1n[nH]cc12 [Compound 826714] |  |  | > 5000 nM | > 5000 nM | 
10 | CCC1(c2cccc(-c3ccncc3C)c2)C2=C(CC(C)(C)NC2=O)Nc2n[nH]c(C(F)(F)F)c21 (stereo not drawn) [Compound 947814] |  |  |  |  | IC50 [1, 7]: ≤ 100 nM; IC50 [1, 13]: ≤ 100 nM; IC50 [2, 8]: ≤ 100 nM; IC50 [2, 14]: ≤ 100 nM
11 | CC[C@]1(c2cccc(-c3c(F)cncc3OC)c2)C2=C(CC(C)(C)C2=O)Nc2n[nH]cc21 [Compound 952562] |  |  | > 5000 nM | 1000 to 5000 nM | 
12 | CC[C@]1(c2cccc(C(F)(F)F)c2)C2=C(CCN(c3ccsc3)C2=O)Nc2n[nH]cc21 [Compound 952636] |  |  | > 5000 nM | > 5000 nM | 
13 | CCC1(c2cccc(Br)c2)C2=C(CC(C)(C)C2=O)Nc2n[nH]cc21 (stereo not drawn) [Compound 949805] |  |  | 1000 to 5000 nM | 100 to 1000 nM | 
14 | CC(=O)N1CCC2(CC1)C1=C(CC(C)(C)CC1=O)Nc1n[nH]cc12 [Compound 826649] | 1000 to 5000 nM | 100 to 1000 nM |  |  | 
15 | CCC1(c2cccc(-c3ccnn3CCC(C)C)c2)C2=C(CC(C)(C)CC2=O)Nc2n[nH]cc21 (stereo not drawn) [Compound 929401] |  |  | ≤ 100 nM | ≤ 100 nM | 
16 | CC[C@@]1(c2cccc(C(F)(F)F)c2)C2=C(Nc3n[nH]cc31)C(C)(C)NC2=O [Compound 913451] | 100 to 1000 nM | ≤ 100 nM |  |  | 
17 | CCC1(c2cccc(-c3cnn(-c4ccccn4)c3)c2)C2=C(CC(C)(C)NC2=O)Nc2n[nH]cc21 (stereo not drawn) [Compound 952566] |  |  | 1000 to 5000 nM | 100 to 1000 nM | IC50 [1, 13]: > 5000 nM; IC50 [2, 14]: > 5000 nM
18 | CC[C@]1(c2cccc(-c3cc(OC)ncc3F)c2)C2=C(CC(C)(C)NC2=O)Nc2n[nH]cc21 [Compound 949109] |  |  |  |  | IC50 [1, 7]: 100 to 1000 nM; IC50 [2, 8]: ≤ 100 nM
19 | CCC1(c2cccc(N(c3cccnc3)C(C)C)c2)C2=C(CC(C)(C)CC2=O)Nc2n[nH]cc21 (stereo not drawn) [Compound 917086] |  |  |  |  | IC50 [1, 13]: 1000 to 5000 nM; IC50 [2, 14]: 100 to 1000 nM
20 | CC[C@]1(c2ccccc2)C2=C(Nc3n[nH]cc31)[C@H](F)C(C)(C)CC2=O [Compound 957200] | 100 to 1000 nM | 100 to 1000 nM |  |  | IC50 [1, 9]: > 5000 nM; IC50 [2, 10]: > 5000 nM

Row | Structure (SMILES) | IC50 [1, 3] | IC50 [2, 4] | IC50 [1, 5] | IC50 [2, 6] | other results
21 | CC[C@]1(c2cccc(N(C)c3cc(C)cc(C)n3)c2)C2=C(CC(C)(C)CC2=O)Nc2n[nH]cc21 [Compound 945610] | 100 to 1000 nM | ≤ 100 nM |  |  | 
22 | CC1(C)CC(=O)C2=C(C1)Nc1n[nH]cc1C21CCN(S(=O)(=O)c2cccc(C#N)c2)CC1 [Compound 947254] | ≤ 100 nM | ≤ 100 nM |  |  | IC50 [1, 9]: 100 to 1000 nM; IC50 [2, 10]: ≤ 100 nM
23 | CC[C@@]1(c2cccc(N(C)c3ccccn3)c2)C2=C(CC(C)(C)CC2=O)Nc2n[nH]cc21 [Compound 875608] |  |  |  |  | IC50 [1, 7]: > 5000 nM; IC50 [2, 8]: 1000 to 5000 nM
24 | C[C@@H]1CCC[C@@]2(C1)C1=C(CC(C)(C)CC1=O)Nc1n[nH]cc12 [Compound 893320] | ≤ 100 nM | ≤ 100 nM |  |  | 
25 | CC1(C)CC(=O)C2=C(C1)Nc1n[nH]cc1C21COC2(CN(C(=O)C3CCC3)C2)C1 (stereo not drawn) [Compound 947288] |  |  |  |  | IC50 [1, 11]: ≤ 100 nM; IC50 [1, 13]: 100 to 1000 nM; IC50 [2, 12]: ≤ 100 nM; IC50 [2, 14]: 100 to 1000 nM
26 | CC(=O)N1C[C@@]2(C[C@]3(CO2)C2=C(CC(C)(C)CC2=O)Nc2n[nH]cc23)[C@@H]1C [Compound 948438] |  |  |  |  | IC50 [1, 11]: ≤ 100 nM; IC50 [2, 12]: ≤ 100 nM
27 | CC[C@@]1(c2cccc(C(F)(F)F)c2)C2=C(CCN(c3ccc(F)cc3)C2=O)Nc2n[nH]cc21 [Compound 948224] |  |  |  |  | IC50 [1, 7]: 100 to 1000 nM; IC50 [2, 8]: ≤ 100 nM
28 | CCC1(c2cccc(S(=O)(=O)C(C)C)c2)C2=C(CC(C)(C)CC2=O)Nc2n[nH]cc21 (stereo not drawn) [Compound 913135] |  |  | ≤ 100 nM | ≤ 100 nM | IC50 [1, 13]: 100 to 1000 nM; IC50 [2, 14]: ≤ 100 nM
29 | CC1(C)CC(=O)C2=C(C1)Nc1n[nH]cc1C21COC2(CN(C(=O)C3(F)CC3)C2)C1 (stereo not drawn) [Compound 947487] |  |  |  |  | IC50 [1, 11]: ≤ 100 nM; IC50 [2, 12]: ≤ 100 nM
30 | CC[C@]1(c2cccc(N(C)c3nccc(C)n3)c2)C2=C(CC(C)(C)CC2=O)Nc2n[nH]cc21 [Compound 945329] | 1000 to 5000 nM | 100 to 1000 nM |  |  | 
31 | CCC1(c2cccc(C3CCOC(C)(C)C3)c2)C2=C(CC(C)(C)CC2=O)Nc2n[nH]cc21 (stereo not drawn) [Compound 912090] |  |  | > 5000 nM | 100 to 1000 nM | 
32 | CC[C@@]1(c2ccccc2)C2=C(Nc3n[nH]cc31)[C@H](C)C[C@H](C)C2=O [Compound 909219] |  |  | > 5000 nM | > 5000 nM | 
33 | C[C@H]1CCC[C@@]12C1=C(CC(C)(C)CC1=O)Nc1n[nH]cc12 [Compound 874320] |  |  | 1000 to 5000 nM | 1000 to 5000 nM | 
34 | O=C1CC(c2ccccc2)CC2=C1C1(CCOCC1)c1c[nH]nc1N2 (stereo not drawn) [Compound 893309] |  |  | 1000 to 5000 nM | 100 to 1000 nM | 
35 | CC1(C)CC(=O)C2=C(C1)Nc1n[nH]cc1C21CCCc2ccccc21 (stereo not drawn) [Compound 913219] |  |  | 100 to 1000 nM | ≤ 100 nM | 
36 | CC1(C)CC(=O)C2=C(C1)Nc1n[nH]cc1[C@]21CC[C@H](C(F)(F)F)C1 [Compound 952435] | 100 to 1000 nM | ≤ 100 nM |  |  | 
37 | CC[C@]1(c2cccc(-c3ccnn3C3CC3(F)F)c2)C2=C(CC(C)(C)NC2=O)Nc2n[nH]cc21 (stereo partly drawn) [Compound 950824] |  |  | ≤ 100 nM | ≤ 100 nM | IC50 [1, 9]: 100 to 1000 nM; IC50 [2, 10]: 100 to 1000 nM
38 | CC[C@@]1(c2ccccc2)C2=C(C[C@@](C)(COC)CC2=O)Nc2n[nH]cc21 [Compound 816875] |  |  |  |  | IC50 [1, 7]: 1000 to 5000 nM; IC50 [2, 8]: 100 to 1000 nM
39 | Cn1ccc(S(=O)(=O)N2CCC3(CC2)C2=C(CC(C)(C)NC2=O)Nc2n[nH]cc23)n1 [Compound 943961] | ≤ 100 nM | ≤ 100 nM |  |  | IC50 [1, 11]: ≤ 100 nM; IC50 [1, 9]: > 5000 nM; IC50 [2, 12]: ≤ 100 nM; IC50 [2, 10]: 100 to 1000 nM
40 | CCC1(c2cccc(-c3ccncc3C)c2)C2=C(CC(C)(C)CC2=O)Nc2n[nH]c(C(F)(F)F)c21 (stereo not drawn) [Compound 945527] | ≤ 100 nM | ≤ 100 nM |  |  | IC50 [1, 13]: 100 to 1000 nM; IC50 [2, 14]: ≤ 100 nM
